In US10899709B2, “Novel-alkynyl-substituted 3-phenylpyrrolidine-2,4-diones and use thereof as herbicides” (BAYER CROPSCIENCE AKTIENGESELLSCHAFT, priority 2015, dated 2021):

How the values were obtained:
Assay type in all cases: in vivo
[1] = test system: Echinochloa crus-galli; test: Post-emergence herbicidal effect; conditions: visual assessment after about 3 weeks
Description: (§1) Seeds of monocotyledonous and dicotyledonous weed and crop plants are laid out in sandy loam in wood-fibre pots, covered with soil and cultivated in a greenhouse under good growth conditions. 2 to 3 weeks after sowing, the test plants are treated at the one-leaf stage. The compounds according to the invention, formulated in the form of wettable powders (WP) or as emulsion concentrates (EC), are then sprayed as aqueous suspension or emulsion at a water application rate of 600 to 800 l/ha (converted) with the addition of 0.2% of wetting agent onto the green parts of the plants. After the test plants have been left to stand in the greenhouse under optimal growth conditions for about 3 weeks, the action of the preparations is assessed visually in comparison to untreated controls (herbicidal action in percent (%): 100% activity=the plants have died, 0% activity=like control plants).

[2] = test system: Lolium multiflorum; test: Post-emergence herbicidal effect; conditions: visual assessment after about 3 weeks
Description: as §1

[3] = test system: Alopecurus myosuroides; test: Post-emergence herbicidal effect; conditions: visual assessment after about 3 weeks
Description: as §1

[4] = test system: Setaria viridis; test: Post-emergence herbicidal effect; conditions: visual assessment after about 3 weeks
Description: as §1

[5] = test system: Echinochloa crus-galli; test: Pre-emergence herbicidal effect; conditions: visual score after 3 weeks
From the text: (§2) Seeds of monocotyledonous and dicotyledonous weed plants and crop plants are laid out in wood-fibre pots in sandy loam and covered with soil. The compounds according to the invention formulated in the form of wettable powders (WP) or as emulsion concentrates (EC) are then applied as aqueous suspension or emulsion at a water application rate of 600 to 800 l/ha (converted) with the addition of 0.2% wetting agent to the surface of the covering soil. After the treatment, the pots are placed in a greenhouse and kept under good growth conditions for the trial plants. The damage to the test plants is scored visually after a test period of 3 weeks by comparison with untreated controls (herbicidal activity in percent (%): 100% activity=the plants have died, 0% activity=like control plants).

[6] = test system: Lolium multiflorum; test: Pre-emergence herbicidal effect; conditions: visual score after 3 weeks
From the text: as §2

[7] = test system: Alopecurus myosuroides; test: Pre-emergence herbicidal effect; conditions: visual score after 3 weeks
From the text: as §2

[8] = test system: Setaria viridis; test: Pre-emergence herbicidal effect; conditions: visual score after 3 weeks
From the text: as §2

[9] = test system: Avena fatua; test: Pre-emergence herbicidal effect; conditions: visual score after 3 weeks
From the text: as §2

[10] = test system: Avena fatua; test: Post-emergence herbicidal effect; conditions: visual assessment after about 3 weeks
Description: as §1

SMILES	Post-emergence effectiveness ECHCG ([1]; 20 g/ha) [%]	Post-emergence effectiveness ECHCG ([1]; 80 g/ha) [%]	Post-emergence effectiveness LOLMU ([2]; 80 g/ha) [%]	Post-emergence effectiveness ALOMY ([3]; 80 g/ha) [%]	Post-emergence effectiveness SETVI ([4]; 80 g/ha) [%]	Pre-emergence effectiveness ECHCG ([5]; 80 g/ha) [%]	Pre-emergence effectiveness LOLMU ([6]; 80 g/ha) [%]	Pre-emergence effectiveness ALOMY ([7]; 80 g/ha) [%]	Pre-emergence effectiveness SETVI ([8]; 80 g/ha) [%]	Post-emergence effectiveness LOLMU ([2]; 20 g/ha) [%]	Post-emergence effectiveness SETVI ([4]; 20 g/ha) [%]	Pre-emergence effectiveness ECHCG ([5]; 320 g/ha) [%]	Pre-emergence effectiveness LOLMU ([6]; 320 g/ha) [%]	Pre-emergence effectiveness ALOMY ([7]; 320 g/ha) [%]	Pre-emergence effectiveness AVEFA ([9]; 320 g/ha) [%]	Pre-emergence effectiveness SETVI ([8]; 320 g/ha) [%]	Post-emergence effectiveness ALOMY ([3]; 20 g/ha) [%]	Post-emergence effectiveness AVEFA ([10]; 20 g/ha) [%]	Post-emergence effectiveness AVEFA ([10]; 80 g/ha) [%]	Pre-emergence effectiveness AVEFA ([9]; 80 g/ha) [%]
CC#Cc1cc(C)c(C2=C(OC(=O)C(C)C)C3(CCC(COC)C3)NC2=O)c(CC)c1 (stereo not shown) [Example Ia-7]	90	100	100	100	80	100	100	100	100	–	–	–	–	–	–	–	–	–	–	–
COCC1CCC2(C1)NC(=O)C(c1c(C)cc(C#CC3CC3)cc1C)=C2O (mixture of isomers) [Example I-14]	90	100	90	80	90	100	–	–	90	90	90	100	100	100	80	90	–	–	–	–
CC#Cc1cc(C)c(C2=C(O)C3(CCC(COC)C3)NC2=O)c(CC)c1 (stereo not shown) [Example I-10]	100	100	100	100	100	100	100	90	80	100	90	100	100	100	100	100	100	100	100	80
CC#Cc1cc(CC)c(C2=C(O)C3(CCC(CCOC)CC3)NC2=O)c(CC)c1 (stereo not shown) [Example I-1]	100	100	90	90	100	100	100	80	100	90	90	100	100	100	80	100	–	–	90	–
CC#Cc1cc(CC)c(C2=C(OC(=O)C(C)C)C3(CCC(OCCOC)CC3)NC2=O)c(CC)c1 (stereo not shown) [Example Ia-13]	80	100	–	–	80	100	100	100	100	–	–	100	100	100	100	100	–	–	–	80
COCC1CCC2(C1)NC(=O)C(c1c(C)cc(C#CC3CC3)cc1C)=C2O (stereo not shown) [Example I-13]	90	90	90	80	90	100	–	–	90	–	90	100	90	100	–	100	–	–	–	–
